The source made the active and inactive calls. No cut-off for these calls is given here.
What was measured:
Rattus norvegicus [1] = test: Neurotoxicity in albino Sprague-Dawley rat assessed as minimal motor impairment at 30 mg/kg, po by rotarod test; type: toxicity, organism-based; parameters: dose 30 mg/kg, route oral; details: in vivo
Rattus norvegicus [2] = test: Anticonvulsant activity in albino Sprague-Dawley rat assessed as protection against maximal electroshock-induced seizures at 30 mg/kg, po after 2 hrs; type: functional, organism-based; parameters: dose 30 mg/kg
Mus musculus [3] = test: Anticonvulsant activity in albino CF1 mouse assessed as protection against maximal electroshock-induced seizures at 30 mg/kg, ip after 4 hrs; type: functional, organism-based; parameters: dose 30 mg/kg
Mus musculus [4] = test: Anticonvulsant activity in albino CF1 mouse assessed as protection against subcutaneous metrazole-induced seizures at 30 mg/kg, ip after 0.5 hrs; type: functional, organism-based; parameters: dose 30 mg/kg
Mus musculus [5] = test: Anticonvulsant activity in albino CF1 mouse assessed as protection against subcutaneous metrazole-induced seizures at 250 mg/kg, ip after 0.25 hrs; type: functional, organism-based; parameters: dose 250 mg/kg
Mus musculus [6] = test: Neurotoxicity in albino CF1 mouse assessed as minimal motor impairment at 350 mg/kg, ip after 0.25 hrs by rotarod test; type: toxicity, organism-based; parameters: dose 350 mg/kg, route intraperitoneal; details: in vivo
Mus musculus [7] = test: Anticonvulsant activity in albino CF1 mouse assessed as protection against maximal electroshock-induced seizures at 30 mg/kg, ip after 0.5 hrs; type: functional, organism-based; parameters: dose 30 mg/kg
Mus musculus [8] = test: Anticonvulsant activity against subcutaneous metrazole-induced seizures in ip dosed albino CF1 mouse assessed as minimum effective dose after 4 hrs; type: functional; details: albino CF1, 4 h, read-out: MED
[9] = biological target: Sodium channel protein type 2 subunit alpha (Homo sapiens, UniProt Q99250); test: Inhibition of human NaV1.2 expressed in HEK cells at -60 mV holding potential by patch clamp recording technique; type: cell-based, HEK293
Sodium channel protein type 2 subunit alpha, sequence (Q99250 whole entry): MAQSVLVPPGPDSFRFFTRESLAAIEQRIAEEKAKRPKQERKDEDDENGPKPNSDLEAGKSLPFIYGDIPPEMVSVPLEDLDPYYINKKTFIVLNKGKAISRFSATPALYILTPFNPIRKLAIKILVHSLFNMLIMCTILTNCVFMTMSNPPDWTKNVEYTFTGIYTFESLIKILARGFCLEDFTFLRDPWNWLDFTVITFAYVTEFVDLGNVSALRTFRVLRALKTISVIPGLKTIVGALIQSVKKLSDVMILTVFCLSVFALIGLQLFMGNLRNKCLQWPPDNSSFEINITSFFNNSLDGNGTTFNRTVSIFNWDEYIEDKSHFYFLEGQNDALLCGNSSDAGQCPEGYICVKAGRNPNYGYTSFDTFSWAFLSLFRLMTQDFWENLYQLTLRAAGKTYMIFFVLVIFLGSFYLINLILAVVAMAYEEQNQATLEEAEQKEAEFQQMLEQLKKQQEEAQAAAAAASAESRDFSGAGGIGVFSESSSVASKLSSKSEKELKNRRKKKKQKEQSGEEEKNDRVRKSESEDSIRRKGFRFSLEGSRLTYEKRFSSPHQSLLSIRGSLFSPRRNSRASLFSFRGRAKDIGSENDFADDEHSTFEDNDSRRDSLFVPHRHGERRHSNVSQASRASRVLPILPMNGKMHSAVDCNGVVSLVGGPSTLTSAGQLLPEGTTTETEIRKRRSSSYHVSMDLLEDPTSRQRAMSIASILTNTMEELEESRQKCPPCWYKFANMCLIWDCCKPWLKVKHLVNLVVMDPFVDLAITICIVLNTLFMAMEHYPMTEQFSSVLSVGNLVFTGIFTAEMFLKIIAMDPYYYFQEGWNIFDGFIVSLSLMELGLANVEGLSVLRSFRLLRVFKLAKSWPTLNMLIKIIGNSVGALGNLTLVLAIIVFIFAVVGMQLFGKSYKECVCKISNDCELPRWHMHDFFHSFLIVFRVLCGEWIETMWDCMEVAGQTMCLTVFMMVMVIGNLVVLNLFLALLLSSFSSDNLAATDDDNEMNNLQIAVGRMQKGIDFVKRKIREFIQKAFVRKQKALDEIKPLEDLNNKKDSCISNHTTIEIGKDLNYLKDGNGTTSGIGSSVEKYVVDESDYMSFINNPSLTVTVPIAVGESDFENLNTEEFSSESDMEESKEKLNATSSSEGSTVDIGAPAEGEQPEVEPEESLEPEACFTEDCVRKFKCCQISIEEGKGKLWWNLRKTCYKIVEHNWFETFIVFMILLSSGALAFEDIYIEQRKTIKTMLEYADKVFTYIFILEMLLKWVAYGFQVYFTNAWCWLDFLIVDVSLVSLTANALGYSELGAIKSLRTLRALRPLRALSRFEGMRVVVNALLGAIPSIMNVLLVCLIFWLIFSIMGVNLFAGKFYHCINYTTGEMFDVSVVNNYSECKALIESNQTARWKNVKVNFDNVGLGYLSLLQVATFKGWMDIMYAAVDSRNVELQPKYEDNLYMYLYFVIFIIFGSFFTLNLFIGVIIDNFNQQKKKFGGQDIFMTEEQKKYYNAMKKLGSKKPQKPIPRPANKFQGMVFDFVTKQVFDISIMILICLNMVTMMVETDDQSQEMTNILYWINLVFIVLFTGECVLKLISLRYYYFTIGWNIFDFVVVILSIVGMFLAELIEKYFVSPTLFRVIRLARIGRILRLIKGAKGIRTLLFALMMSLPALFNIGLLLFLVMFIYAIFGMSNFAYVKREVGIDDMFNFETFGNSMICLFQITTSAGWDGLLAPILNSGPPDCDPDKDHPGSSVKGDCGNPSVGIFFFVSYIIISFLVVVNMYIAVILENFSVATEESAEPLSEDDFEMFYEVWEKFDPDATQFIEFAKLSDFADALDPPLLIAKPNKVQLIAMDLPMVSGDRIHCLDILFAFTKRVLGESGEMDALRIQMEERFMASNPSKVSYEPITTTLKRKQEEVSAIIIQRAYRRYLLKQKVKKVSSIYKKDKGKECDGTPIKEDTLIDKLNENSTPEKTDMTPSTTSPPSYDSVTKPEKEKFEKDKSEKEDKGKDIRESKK

Mus musculus [10] = test: Anticonvulsant activity in albino CF1 mouse assessed as protection against subcutaneous metrazole-induced seizures at 300 mg/kg, ip after 0.5 hrs; type: functional, organism-based; parameters: dose 300 mg/kg
Mus musculus [11] = test: Neurotoxicity in ip dosed albino CF1 mouse assessed as minimal motor impairment after 0.25 hrs by rotarod test; type: toxicity, organism-based; details: in vivo
Mus musculus [12] = test: Anticonvulsant activity in albino CF1 mouse assessed as protection against subcutaneous metrazole-induced seizures at 30 mg/kg, ip after 4 hrs; type: functional, organism-based; parameters: dose 30 mg/kg
Mus musculus [13] = test: Neurotoxicity in albino CF1 mouse assessed as minimal motor impairment at 30 mg/kg, ip after 4 hrs by rotarod test; type: toxicity, organism-based; parameters: dose 30 mg/kg, route intraperitoneal; details: in vivo
Mus musculus [14] = test: Anticonvulsant activity against maximal electroshock-induced seizures in ip dosed albino CF1 mouse assessed as minimum effective dose after 4 hrs; type: functional; details: read-out: MED
Mus musculus [15] = test: Anticonvulsant activity in albino CF1 mouse assessed as protection against subcutaneous metrazole-induced seizures at 100 mg/kg, ip after 0.5 hrs; type: functional, organism-based; parameters: dose 100 mg/kg
Rattus norvegicus [16] = test: Anticonvulsant activity in albino Sprague-Dawley rat assessed as protection against maximal electroshock-induced seizures at 30 mg/kg, po after 1 hr; type: functional, organism-based; parameters: dose 30 mg/kg
Mus musculus [17] = test: Neurotoxicity in albino CF1 mouse assessed as minimal motor impairment at 100 mg/kg, ip after 0.5 hrs by rotarod test; type: toxicity, organism-based; parameters: dose 100 mg/kg, route intraperitoneal; details: in vivo
Mus musculus [18] = test: Anticonvulsant activity against maximal electroshock-induced seizures in ip dosed albino CF1 mouse assessed as minimum effective dose after 0.5 hrs; type: functional; details: read-out: MED
Mus musculus [19] = test: Anticonvulsant activity in albino CF1 mouse assessed as protection against subcutaneous metrazole-induced seizures at 125 mg/kg, ip after 0.25 hrs; type: functional, organism-based; parameters: dose 125 mg/kg
Mus musculus [20] = test: Neurotoxicity in albino CF1 mouse assessed as minimal motor impairment at 500 mg/kg, ip after 0.25 hrs by rotarod test; type: toxicity, organism-based; parameters: dose 500 mg/kg, route intraperitoneal; details: in vivo
Mus musculus [21] = test: Anticonvulsant activity in albino CF1 mouse assessed as protection against maximal electroshock-induced seizures at 100 mg/kg, ip after 0.5 hrs; type: functional, organism-based; parameters: dose 100 mg/kg
Mus musculus [22] = test: Neurotoxicity in albino CF1 mouse assessed as minimal motor impairment at 30 to 300 mg/kg, ip after 0.5 hrs by rotarod test; details: in vivo
Mus musculus [23] = test: Anticonvulsant activity in albino CF1 mouse assessed as protection against maximal electroshock-induced seizures at 300 mg/kg, ip after 4 hrs; type: functional, organism-based; parameters: dose 300 mg/kg
Mus musculus [24] = test: Anticonvulsant activity ip dosed albino CF1 mouse assessed as protection against maximal electroshock-induced seizures after 0.25 hrs; type: functional
Rattus norvegicus [25] = test: Anticonvulsant activity in albino Sprague-Dawley rat assessed as protection against maximal electroshock-induced seizures at 30 mg/kg, po after 0.5 hrs; type: functional, organism-based; parameters: dose 30 mg/kg
Mus musculus [26] = test: Anticonvulsant activity against subcutaneous metrazole-induced seizures in ip dosed albino CF1 mouse assessed as minimum effective dose after 0.5 hrs; type: functional; details: albino CF1, 0.5 h, read-out: MED
Mus musculus [27] = test: Anticonvulsant activity in albino CF1 mouse assessed as protection against maximal electroshock-induced seizures at 300 mg/kg, ip after 0.5 hrs; type: functional, organism-based; parameters: dose 300 mg/kg
Mus musculus [28] = test: Anticonvulsant activity ip dosed albino CF1 mouse assessed as protection against subcutaneous metrazole-induced seizures after 0.25 hrs; type: functional; details: albino CF1, 0.25 h
Mus musculus [29] = test: Neurotoxicity in albino CF1 mouse assessed as minimal motor impairment at 30 to 300 mg/kg, po after 4 hrs by rotarod test; type: toxicity, organism-based; parameters: dose 30-300 mg/kg, route oral; details: in vivo
Mus musculus [30] = test: Anticonvulsant activity in albino CF1 mouse assessed as protection against subcutaneous metrazole-induced seizures at 100 mg/kg, ip after 4 hrs; type: functional, organism-based; parameters: dose 100 mg/kg
Mus musculus [31] = test: Neurotoxicity in albino CF1 mouse assessed as minimal motor impairment at 30 mg/kg, ip after 0.5 hrs by rotarod test; type: toxicity, organism-based; parameters: dose 30 mg/kg, route intraperitoneal; details: in vivo
Mus musculus [32] = test: Neurotoxicity in ip dosed albino CF1 mouse assessed as minimum dose required to cause toxicity after 0.5 hrs by rotarod test; type: organism-based; details: in vivo
Mus musculus [33] = species: Mus musculus; test: Protective index, ratio of TD50 for albino CF1 mouse by rotarod test to ED50 for albino CF1 mouse by maximal electroshock seizures test; type: functional
Rattus norvegicus [34] = test: Anticonvulsant activity in albino Sprague-Dawley rat assessed as protection against maximal electroshock-induced seizures at 30 mg/kg, po after 4 hrs; type: functional, organism-based; parameters: dose 30 mg/kg
Rattus norvegicus [35] = test: Anticonvulsant activity in albino Sprague-Dawley rat assessed as protection against maximal electroshock-induced seizures at 30 mg/kg, po after 0.25 hrs; type: functional, organism-based; parameters: dose 30 mg/kg
Mus musculus [36] = test: Anticonvulsant activity in albino CF1 mouse assessed as protection against subcutaneous metrazole-induced seizures at 300 mg/kg, ip after 4 hrs; type: functional, organism-based; parameters: dose 300 mg/kg
Mus musculus [37] = test: Anticonvulsant activity in albino CF1 mouse assessed as protection against maximal electroshock-induced seizures at 230 mg/kg, ip after 0.25 hrs; type: functional, organism-based; parameters: dose 230 mg/kg
Mus musculus [38] = test: Neurotoxicity in albino CF1 mouse assessed as minimal motor impairment at 300 mg/kg, ip after 4 hrs by rotarod test; type: toxicity, organism-based; parameters: dose 300 mg/kg, route intraperitoneal; details: in vivo
Mus musculus [39] = test: Neurotoxicity in albino CF1 mouse assessed as minimal motor impairment at 100 mg/kg, ip after 4 hrs by rotarod test; type: toxicity, organism-based; parameters: dose 100 mg/kg, route intraperitoneal; details: in vivo
Mus musculus [40] = test: Neurotoxicity in ip dosed albino CF1 mouse assessed as minimum dose required to cause toxicity after 4 hrs by rotarod test; type: organism-based; details: in vivo
Mus musculus [41] = test: Anticonvulsant activity in albino CF1 mouse assessed as protection against maximal electroshock-induced seizures at 100 mg/kg, ip after 4 hrs; type: functional, organism-based; parameters: dose 100 mg/kg

Clc1cccc(-c2c[nH]c(-c3ccccc3)n2)c1
Activity (Rattus norvegicus [1]): Non-toxic | Activity (Rattus norvegicus [2]): inactive | Activity (Mus musculus [3]): inactive | Activity (Mus musculus [4]): inactive | Activity (Mus musculus [5]): inactive | Activity (Mus musculus [6]): Non-toxic | Activity (Mus musculus [7]): inactive | minimal effective dose (Mus musculus [8]): > 300 mg/kg | IC50 [9]: 17.9 µM | Activity (Mus musculus [10]): inactive | TD50 (Mus musculus [11]): > 500 mg/kg | Activity (Mus musculus [12]): inactive | Activity (Mus musculus [13]): Non-toxic | minimal effective dose (Mus musculus [14]): 100 mg/kg | Activity (Mus musculus [15]): inactive | Activity (Rattus norvegicus [16]): inactive | Activity (Mus musculus [17]): Non-toxic | minimal effective dose (Mus musculus [18]): > 30 mg/kg | Activity (Mus musculus [19]): inactive | Activity (Mus musculus [20]): Non-toxic | Activity (Mus musculus [21]): Active | Activity (Mus musculus [22]): Non-toxic | Activity (Mus musculus [23]): Active | ED50 (Mus musculus [24]): 137 mg/kg | Activity (Rattus norvegicus [25]): inactive | minimal effective dose (Mus musculus [26]): > 300 mg/kg | Activity (Mus musculus [27]): Active | ED50 (Mus musculus [28]): > 250 mg/kg | Activity (Mus musculus [29]): Non-toxic | Activity (Mus musculus [30]): inactive | Activity (Mus musculus [31]): Non-toxic | MED (Mus musculus [32]): 100 mg/kg | PI (Mus musculus [33]): >3.6 | Activity (Rattus norvegicus [34]): inactive | Activity (Rattus norvegicus [35]): inactive | Activity (Mus musculus [36]): inactive | Activity (Mus musculus [37]): Active | Activity (Mus musculus [38]): Non-toxic | Activity (Mus musculus [39]): Non-toxic | MED (Mus musculus [40]): > 300 mg/kg | Activity (Mus musculus [41]): inactive
